Assay results from PubChem BioAssay AID1963960 (Molecular Pharmacology Branch, DTP, NCI, 2024).
“And” between values parts separate entries of the source, which are not always exact repeats. Equal values may be shown once.

System: MDA-MB-468 spheroids with HUVEC/MSC, viability
Experiment: Anticancer human tumor MDA-MB-468 cell line growth inhibition [PI3K];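 further: spheroids exposed to agents for seven days before readout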;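 on viability, T/C: 100% = DMSO vehicle control viability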
Conditions: for viability, T/C: stronger effect = lower value
Outline: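 Targeted small molecules plus PI3K inhibitors, half-log dose series from Cmax (default top 10 microM), were applied to heterotypic spheroids of cancer cells with HUVEC and MSCs. Viability indicated growth inhibition.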

[1] = curve of first compound, second compound 0.00316 µM
[2] = curve of first compound, second compound 0.01 µM
[3] = curve of first compound, second compound 0.0316 µM
[4] = curve of first compound, second compound 0.1 µM
[5] = curve of first compound, second compound 0.316 µM
[6] = curve of first compound, second compound 1 µM
[7] = second compound 0.00316 µM, first compound 0.00316 µM
[8] = second compound 0.00316 µM, first compound 0.01 µM
[9] = second compound 0.00316 µM, first compound 0.0316 µM
[10] = second compound 0.00316 µM, first compound 0.1 µM
[11] = second compound 0.00316 µM, first compound 0.316 µM
[12] = second compound 0.00316 µM, first compound 1 µM
[13] = second compound 0.01 µM, first compound 0.00316 µM
[14] = second compound 0.01 µM, first compound 0.01 µM
[15] = second compound 0.01 µM, first compound 0.0316 µM
[16] = second compound 0.01 µM, first compound 0.1 µM
[17] = second compound 0.01 µM, first compound 0.316 µM
[18] = second compound 0.01 µM, first compound 1 µM
[19] = second compound 0.0316 µM, first compound 0.00316 µM
[20] = second compound 0.0316 µM, first compound 0.01 µM
[21] = second compound 0.0316 µM, first compound 0.0316 µM
[22] = second compound 0.0316 µM, first compound 0.1 µM
[23] = second compound 0.0316 µM, first compound 0.316 µM
[24] = second compound 0.0316 µM, first compound 1 µM
[25] = second compound 0.1 µM, first compound 0.00316 µM
[26] = second compound 0.1 µM, first compound 0.01 µM
[27] = second compound 0.1 µM, first compound 0.0316 µM
[28] = second compound 0.1 µM, first compound 0.1 µM
[29] = second compound 0.1 µM, first compound 0.316 µM
[30] = second compound 0.1 µM, first compound 1 µM
[31] = second compound 0.316 µM, first compound 0.00316 µM
[32] = second compound 0.316 µM, first compound 0.01 µM
[33] = second compound 0.316 µM, first compound 0.0316 µM
[34] = second compound 0.316 µM, first compound 0.1 µM
[35] = second compound 0.316 µM, first compound 0.316 µM
[36] = second compound 0.316 µM, first compound 1 µM
[37] = second compound 1 µM, first compound 0.00316 µM
[38] = second compound 1 µM, first compound 0.01 µM
[39] = second compound 1 µM, first compound 0.0316 µM
[40] = second compound 1 µM, first compound 0.1 µM
[41] = second compound 1 µM, first compound 0.316 µM
[42] = second compound 1 µM, first compound 1 µM
[43] = second compound 0.00316 µM, first compound 0.000316 µM
[44] = second compound 0.00316 µM, first compound 0.001 µM
[45] = second compound 0.01 µM, first compound 0.000316 µM
[46] = second compound 0.01 µM, first compound 0.001 µM
[47] = second compound 0.0316 µM, first compound 0.000316 µM
[48] = second compound 0.0316 µM, first compound 0.001 µM
[49] = second compound 0.1 µM, first compound 0.000316 µM
[50] = second compound 0.1 µM, first compound 0.001 µM
[51] = second compound 0.316 µM, first compound 0.000316 µM
[52] = second compound 0.316 µM, first compound 0.001 µM
[53] = second compound 1 µM, first compound 0.000316 µM
[54] = second compound 1 µM, first compound 0.001 µM

CC(Nc1ccc2c(c1)OCCn1cc(N3C(=O)OCC3C(F)F)nc1-2)C(N)=O (stereo unspecified)
viability, T/C (compound 0.00316 µM): 96.8% [middle of 8 runs]
viability, T/C (compound 0.01 µM): 88.1% [middle of 8 runs]
viability, T/C (compound 0.0316 µM): 84.2% [middle of 8 runs]
viability, T/C (compound 0.1 µM): 91.4% [middle of 8 runs]
viability, T/C (compound 0.316 µM): 93.4% [middle of 8 runs]
viability, T/C (compound 1 µM): 90.8% [middle of 8 runs]
IC50 (compound alone, run of 05/08/2023): > 1000 nM

CC(Cn1ccc(-c2ccc(C#N)c(Cl)c2)n1)NC(=O)c1cc(C(C)O)[nH]n1 (stereo unspecified)
viability, T/C (compound 0.0316 µM): 98% [middle of 4 runs]
viability, T/C (compound 0.1 µM): 87.6% [middle of 4 runs]
viability, T/C (compound 0.316 µM): 87.2% and 90.1% and 102% (2×)
viability, T/C (compound 1 µM): 96.8% [middle of 4 runs]
viability, T/C (compound 3.16 µM): 83.8% [middle of 4 runs]
IC50 (curve of compound): > 10000 nM

CCN1CCN(Cc2ccc(Nc3ncc(F)c(-c4cc(F)c5nc(C)n(C(C)C)c5c4)n3)nc2)CC1 + CC(Nc1ccc2c(c1)OCCn1cc(N3C(=O)OCC3C(F)F)nc1-2)C(N)=O
IC50 [1]: > 1000 nM
IC50 [2]: > 1000 nM
IC50 [3]: > 1000 nM
IC50 [4]: > 1000 nM
IC50 [5]: 855 nM
IC50 [6]: > 1000 nM
viability, T/C [7]: 94%
viability, T/C [8]: 98.2%
viability, T/C [9]: 91.5%
viability, T/C [10]: 103%
viability, T/C [11]: 98.9%
viability, T/C [12]: 70.1%
viability, T/C [13]: 101%
viability, T/C [14]: 117%
viability, T/C [15]: 83.4%
viability, T/C [16]: 100%
viability, T/C [17]: 94.5%
viability, T/C [18]: 70.5%
viability, T/C [19]: 103%
viability, T/C [20]: 108%
viability, T/C [21]: 99.2%
viability, T/C [22]: 85.5%
viability, T/C [23]: 104%
viability, T/C [24]: 59.2%
viability, T/C [25]: 106%
viability, T/C [26]: 95.5%
viability, T/C [27]: 99.2%
viability, T/C [28]: 105%
viability, T/C [29]: 89.4%
viability, T/C [30]: 54.3%
viability, T/C [31]: 106%
viability, T/C [32]: 92.7%
viability, T/C [33]: 79.9%
viability, T/C [34]: 93.3%
viability, T/C [35]: 84.6%
viability, T/C [36]: 44.2%
viability, T/C [37]: 108%
viability, T/C [38]: 81.7%
viability, T/C [39]: 88.6%
viability, T/C [40]: 88.3%
viability, T/C [41]: 88.3%
viability, T/C [42]: 51.8%

Cn1nccc1Nc1nccc(-c2ccn(C(CO)c3ccc(Cl)c(F)c3)c(=O)c2)n1 (stereo unspecified) + CC(Nc1ccc2c(c1)OCCn1cc(N3C(=O)OCC3C(F)F)nc1-2)C(N)=O
IC50 [1]: > 10000 nM
IC50 [2]: > 10000 nM
IC50 [3]: > 10000 nM
IC50 [4]: > 10000 nM
IC50 [5]: > 10000 nM
IC50 [6]: > 10000 nM
viability, T/C [9]: 85.3%
viability, T/C [10]: 96.8%
viability, T/C [11]: 87.2%
viability, T/C [12]: 90.4%
viability, T/C (second compound 0.00316 µM, first compound 3.16 µM): 96.1%
viability, T/C (second compound 0.00316 µM, first compound 10 µM): 87.9%
viability, T/C [15]: 97%
viability, T/C [16]: 89.1%
viability, T/C [17]: 87.8%
viability, T/C [18]: 94.9%
viability, T/C (second compound 0.01 µM, first compound 3.16 µM): 101%
viability, T/C (second compound 0.01 µM, first compound 10 µM): 82.6%
viability, T/C [21]: 95.3%
viability, T/C [22]: 86.6%
viability, T/C [23]: 88.6%
viability, T/C [24]: 80.1%
viability, T/C (second compound 0.0316 µM, first compound 3.16 µM): 108%
viability, T/C (second compound 0.0316 µM, first compound 10 µM): 77.8%
viability, T/C [27]: 88%
viability, T/C [28]: 89.2%
viability, T/C [29]: 77.7%
viability, T/C [30]: 81%
viability, T/C (second compound 0.1 µM, first compound 3.16 µM): 87.5%
viability, T/C (second compound 0.1 µM, first compound 10 µM): 73.1%
viability, T/C [33]: 90%
viability, T/C [34]: 82.5%
viability, T/C [35]: 89.6%
viability, T/C [36]: 87.6%
viability, T/C (second compound 0.316 µM, first compound 3.16 µM): 82.7%
viability, T/C (second compound 0.316 µM, first compound 10 µM): 60.7%
viability, T/C [39]: 85.5%
viability, T/C [40]: 74.3%
viability, T/C [41]: 74.7%
viability, T/C [42]: 74.8%
viability, T/C (second compound 1 µM, first compound 3.16 µM): 81.2%
viability, T/C (second compound 1 µM, first compound 10 µM): 55.2%

CC(=O)c1c(C)c2cnc(Nc3ccc(N4CCNCC4)cn3)nc2n(C2CCCC2)c1=O + COc1c(OCCCN2CCOCC2)ccc2c3n(c(=NC(=O)c4cnc(N)nc4)nc12)CCN3
IC50 [1]: > 100 nM
IC50 [2]: > 100 nM
IC50 [3]: > 100 nM
IC50 [4]: > 100 nM
IC50 [5]: < 0.316 nM
IC50 [6]: < 0.316 nM
viability, T/C [43]: 105%
viability, T/C [44]: 92.6%
viability, T/C [7]: 92.5%
viability, T/C [8]: 99.7%
viability, T/C [9]: 90.1%
viability, T/C [10]: 91.5%
viability, T/C [45]: 85.7%
viability, T/C [46]: 84%
viability, T/C [13]: 81.2%
viability, T/C [14]: 86.2%
viability, T/C [15]: 86.8%
viability, T/C [16]: 110%
viability, T/C [47]: 64.1%
viability, T/C [48]: 67.5%
viability, T/C [19]: 72.2%
viability, T/C [20]: 79.8%
viability, T/C [21]: 83.2%
viability, T/C [22]: 86.4%
viability, T/C [49]: 59.5%
viability, T/C [50]: 62.8%
viability, T/C [25]: 58.8%
viability, T/C [26]: 61.5%
viability, T/C [27]: 64.1%
viability, T/C [28]: 53.2%
viability, T/C [51]: 26.6%
viability, T/C [52]: 25.5%
viability, T/C [31]: 27.1%
viability, T/C [32]: 26.3%
viability, T/C [33]: 27.1%
viability, T/C [34]: 27.9%
viability, T/C [53]: 3.5%
viability, T/C [54]: 3.63%
viability, T/C [37]: 2.3%
viability, T/C [38]: 3.4%
viability, T/C [39]: 2.94%
viability, T/C [40]: 2.61%

CCCS(=O)(=O)Nc1ccc(F)c(C(=O)c2c[nH]c3ncc(-c4ccc(Cl)cc4)cc23)c1F
viability, T/C (compound 0.316 µM): 107% [middle of 4 runs]
viability, T/C (compound 1 µM): 97.7% [middle of 4 runs]
viability, T/C (compound 3.16 µM): 78.9% [middle of 4 runs]
viability, T/C (compound 10 µM): 16.4% [middle of 4 runs]
IC50 (curve of compound): 5.5 µM [middle of 4 runs]

CC(=O)c1c(C)c2cnc(Nc3ccc(N4CCNCC4)cn3)nc2n(C2CCCC2)c1=O + CC(Nc1ccc2c(c1)OCCn1cc(N3C(=O)OCC3C(F)F)nc1-2)C(N)=O
IC50 [1]: > 100 nM
IC50 [2]: > 100 nM
IC50 [3]: > 100 nM
IC50 [4]: > 100 nM
IC50 [5]: > 100 nM
IC50 [6]: > 100 nM
viability, T/C [43]: 96.1%
viability, T/C [44]: 95.3%
viability, T/C [7]: 96.8%
viability, T/C [8]: 102%
viability, T/C [9]: 97.4%
viability, T/C [10]: 89.9%
viability, T/C [45]: 105%
viability, T/C [46]: 91%
viability, T/C [13]: 93.6%
viability, T/C [14]: 110%
viability, T/C [15]: 105%
viability, T/C [16]: 97.1%
viability, T/C [47]: 103%
viability, T/C [48]: 92.7%
viability, T/C [19]: 89%
viability, T/C [20]: 89%
viability, T/C [21]: 97%
viability, T/C [22]: 79.3%
viability, T/C [49]: 86.5%
viability, T/C [50]: 84.8%
viability, T/C [25]: 101%
viability, T/C [26]: 88.4%
viability, T/C [27]: 96%
viability, T/C [28]: 89.2%
viability, T/C [51]: 89.5%
viability, T/C [52]: 72.1%
viability, T/C [31]: 79.1%
viability, T/C [32]: 87.5%
viability, T/C [33]: 83.8%
viability, T/C [34]: 84.1%
viability, T/C [53]: 84.1%
viability, T/C [54]: 81.6%
viability, T/C [37]: 73%
viability, T/C [38]: 90.6%
viability, T/C [39]: 66.7%
viability, T/C [40]: 82%
